What was measured:
[1] = tested on: H1N1pdm09 virus (A/Netherlands/602/2009); conditions: for IC50: 1 h
H1 ectodomain = conditions: pH 7.5

CC[C@H](C)[C@@H]1NC(=O)[C@H](CO)NC(=O)CNC(=O)CNC(=O)[C@H](CC(=O)O)NC(=O)[C@@H]2CCCN2C(=O)[C@H](Cc2c[nH]c3ccccc23)NC(=O)[C@H](CC(N)=O)NC(=O)[C@H](Cc2ccccc2)NC(=O)[C@H](C(C)C)NC(=O)[C@H](Cc2ccccc2)NC(=O)[C@H](CC(C)C)NC(=O)[C@@H]2CSC(=N2)c2cc(ccn2)C[C@@H](C(=O)NCC(N)=O)NC(=O)[C@H](CCCCN)NC(=O)[C@H](CC(N)=O)NC(=O)[C@H]([C@@H](C)O)NC1=O [M5]
Infection inhibition in single-concentration screen [1]: clear infection inhibition
Plateau of infection inhibition in dose-response [1]: plateau at less than full inhibition
IC50 [1]: 40.3 nM
Competition with fluorescein-labelled S5 for binding to H1 protein (H1 ectodomain): compete

CC[C@H](C)[C@@H]1NC(=O)CNC(=O)[C@H](CC(N)=O)NC(=O)[C@@H]2CCCN2C(=O)[C@H](C(C)C)NC(=O)[C@H](Cc2ccccc2)NC(=O)[C@H](Cc2ccc(O)cc2)NC(=O)[C@@H]2CCCN2C(=O)[C@H](Cc2ccccc2)NC(=O)[C@H](Cc2ccc(O)cc2)NC(=O)[C@H](CC(C)C)NC(=O)[C@@H]2CSC(=N2)c2cc(ccn2)C[C@@H](C(=O)NCC(N)=O)NC(=O)[C@H](CCC(=O)O)NC(=O)[C@H](CC(C)C)NC(=O)[C@H]([C@@H](C)CC)NC(=O)[C@H](CC(N)=O)NC1=O [M7]
Infection inhibition in single-concentration screen [1]: clear infection inhibition
Plateau of infection inhibition in dose-response [1]: plateau at less than full inhibition
IC50 [1]: 10.8 nM
Competition with fluorescein-labelled S5 for binding to H1 protein (H1 ectodomain): compete

From article PMC10548512 (Chemical Science, 2023)
